Earlier results on four compounds are cited in patent US20070092440A1, “Bone localising radiopharmaceutical and tubulin-interacting compound combinatorial” (priority 2003, published 2007).

The test system of data set [1] is leukocyte and platelet counts. The conditions noted are these: 1.0 mCi/kg.
For data set [2] the following is noted: supplied frozen.
The conditions of data set [3]: in bone.
For data set [4] the following is noted: repeated dosing with 1.0 mCi/kg.
The conditions of data set [5]: in vivo.
Data set [6] has as its system bone pain, osteoblastic metastatic bone lesions. The conditions noted are these: for treated patients with symptomatic relief of bone pain: in vivo.
For data set [7], the system named is HRPC patients with bone metastases.

Regarding `O=P([O-])(O)CN(CCN(CP(=O)([O-])O)CP(=O)(O)O)CP(=O)([O-])O.[153Sm+3]` [samarium Sm 153 lexidronam], in data set [1], the “median time of nadir of leukocyte and platelet counts” value is reported as 4 weeks; the “patients with Grade 3/4 haematologic toxicity” value is listed as < 10%; the “time by which recovery of counts is generally complete” value is given as 5-8 weeks. Moreover, in data set [2], the “drug product expiry after the time of calibration” value was 48 h. Moreover, the range of emission in data set [3] is 1.7 mm. For the same compound, the “cumulative toxicity on repeated dosing” value in data set [4] is listed as “not associated with cumulative toxicity”. Further, the myelosuppression entry in data set [5] is “Myelosuppression has been observed”. Besides, in data set [6] (1.0 mCi/kg dose group), the “patients with pain relief at Week 4 who still had pain relief at Week 16” value is “two-thirds”. The “treated patients with symptomatic relief of bone pain” value in data set [6] was “approximately 80%”. In addition, for the setting “after administration”, the “time in which the majority of excretion occurs” value was ≤ 8 h and the “time to complete excretion” value was ≤ 12 h. Further, where the note is “in vivo”, the clearance route result is given as “exclusively renal” and the “uptake by nonosseous tissue” value is given as “no significant uptake”.
Regarding `COc1cccc2c1C(=O)c1c(O)c3c(c(O)c1C2=O)C[C@@](O)(C(=O)CO)C[C@@H]3O[C@H]1C[C@H](N)[C@H](O)[C@H](C)O1` [doxorubicin], the overall survival in data set [7] (72 HRPC patients with bone metastases, randomized) was 16.8 months. Moreover, the “incidence of Grade 3/4 neutropenia” value in data set [7] (in vivo) is recorded as 22%.
With `[89Sr+2].[Cl-].[Cl-]` [strontium 89 chloride], the “treated patients with symptomatic relief of bone pain” value in data set [6] is recorded as “approximately 80%”.
As to `CC(=O)O[C@@]12CO[C@@H]1C[C@H](O)[C@@]1(C)C(=O)[C@H](O)C3=C(C)[C@@H](OC(=O)[C@H](O)[C@@H](NC(=O)OC(C)(C)C)c4ccccc4)C[C@@](O)([C@@H](OC(=O)c4ccccc4)[C@H]21)C3(C)C` [docetaxel], the myelosuppression entry in data set [5] is listed as “Myelosuppression has been observed”.
